# Measurements taken from patent US5726195A, “Aminoacyl adenylate mimics as novel antimicrobial and antiparasitic agents” (Cubist Pharmaceuticals, Inc., priority 1996, dated 1998).
# What was measured:
# C. albicans ATCC 10231 = test: Whole cell antimicrobial screen, MIC; format: cell-based; conditions: Candida albicans, ATCC10231
# Experimental: (§1) Compounds were tested for antimicrobial activity against a panel of organisms according to standard procedures described by the National Committee for Clinical Laboratory Standards (NCCLS document M7-A3, Vol. 13, No. 25, 1993/NCCLS document M27-P, Vol. 12, No. 25, 1992). Compounds were dissolved in 100% dimethyl sulfoxide and were diluted to the final reaction concentration (0.1 μg/mL-500 μg/mL) in microbial growth media. In al cases the final concentration of dimethyl sulfoxide incubated with cells is less than or equal to 1%. For minimum inhibitory concentration (MIC) calculations, 2-fold dilutions of compounds were added to wells of a microtiter plate containing 5×10^4 bacteria or fungal cells in a final volume of 100 lambda of an appropriate media (Mueller-Hinton Broth; Haemophilus Test Media; Mueller-Hinton Broth+5% Sheep Blood; or […]). Plates were incubated overnight at an appropriate temperature (30° C.-37° C.) and optical densities (measure of cell growth) were measured using a commercial plate reader. The MIC value is defined as the lowest compound concentration inhibiting growth of the test organism.
# E. faecium ATCC 6569 = test: Whole cell antimicrobial screen, MIC; format: cell-based; conditions: Enterococcus faecium, ATCC6569
# Experimental: as §1
# S. pyogenes ATCC 8668 = test: Whole cell antimicrobial screen, MIC; format: cell-based; conditions: Streptococcus pyogenes, ATCC8668
# Experimental: as §1
# S. aureus ATCC 14154 = test: Whole cell antimicrobial screen, MIC; format: cell-based; conditions: Staphylococcus aureus, ATCC14154
# Experimental: as §1
# E. faecalis ATCC 33011 = test: Whole cell antimicrobial screen, MIC; format: cell-based; conditions: Enterococcus faecalis, ATCC33011
# Experimental: as §1
# S. aureus ATCC 6538P = test: Whole cell antimicrobial screen, MIC; format: cell-based; conditions: Staphylococcus aureus, ATCC6538P
# Experimental: as §1
# [1] = system: S. saprophyticus ATCC 35552; test: Whole cell antimicrobial screen, MIC; format: cell-based; conditions: Staphylococcus saprophyticus, ATCC35552
# Experimental: as §1
# [2] = system: S. epidermidis ATCC 33501; test: Whole cell antimicrobial screen, MIC; format: cell-based; conditions: Staphylococcus epidermidis, ATCC33501
# Experimental: as §1
# [3] = molecular target: E. Coli. IleRS (isoleucyl-tRNA synthetase) (Escherichia coli, UniProt P00956); test: Inhibition of isoleucyl-tRNA synthetase (aminoacylation of tRNA with [3H]isoleucine); format: biochemical; conditions: E. coli enzyme; irreversible inhibitors: values are 50% of the active enzyme concentration; read-out: IC50 E.Coli. IleRS
# Sequence of E. Coli. IleRS (isoleucyl-tRNA synthetase) (P00956 whole entry): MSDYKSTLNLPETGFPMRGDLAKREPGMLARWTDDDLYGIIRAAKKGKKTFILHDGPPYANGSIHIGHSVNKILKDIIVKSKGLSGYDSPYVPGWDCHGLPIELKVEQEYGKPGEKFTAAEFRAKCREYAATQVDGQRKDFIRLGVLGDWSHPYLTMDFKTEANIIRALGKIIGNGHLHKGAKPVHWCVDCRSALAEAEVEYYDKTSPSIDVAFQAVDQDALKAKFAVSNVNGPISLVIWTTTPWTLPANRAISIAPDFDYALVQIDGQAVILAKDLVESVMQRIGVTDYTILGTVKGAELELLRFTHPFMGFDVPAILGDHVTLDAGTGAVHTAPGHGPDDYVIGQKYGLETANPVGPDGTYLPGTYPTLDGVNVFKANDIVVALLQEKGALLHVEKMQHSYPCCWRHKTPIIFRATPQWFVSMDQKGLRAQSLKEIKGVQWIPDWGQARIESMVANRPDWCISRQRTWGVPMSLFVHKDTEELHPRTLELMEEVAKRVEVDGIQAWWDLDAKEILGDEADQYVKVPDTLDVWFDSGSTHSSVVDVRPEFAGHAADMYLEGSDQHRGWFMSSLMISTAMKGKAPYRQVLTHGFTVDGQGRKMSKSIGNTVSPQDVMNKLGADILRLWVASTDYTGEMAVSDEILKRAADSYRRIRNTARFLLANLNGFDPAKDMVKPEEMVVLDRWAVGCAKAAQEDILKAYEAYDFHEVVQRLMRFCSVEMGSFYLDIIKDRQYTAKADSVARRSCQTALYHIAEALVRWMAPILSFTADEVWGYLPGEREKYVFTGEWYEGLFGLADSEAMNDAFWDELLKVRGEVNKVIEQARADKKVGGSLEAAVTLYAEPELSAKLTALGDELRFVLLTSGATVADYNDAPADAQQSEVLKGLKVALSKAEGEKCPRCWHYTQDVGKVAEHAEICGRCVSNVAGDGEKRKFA
# Experimental: The extent of aminoacylation of tRNA with isoleucine catalyzed by isoleucyl-tRNA synthetase enzyme was measured by monitoring the incorporation of [3H] isoleucine into trichloroacetic acid-precipitable tRNA in the presence of a compound of Formula I, as compared with activity in the absence of inhibitor. The isoleucyl-tRNA synthetase enzymes are well known in the prior art and can be obtained and purified by known methods (for example see: D. Kern et at., Biochimie, 61, 1257-1272 (1979) and J. Gilbart et al., Antimicrobial Agents and Chemotherapy, 37 (1), 32-38 (1993)).
# Isoleucyl-tRNA synthetase enzyme (0.08-2.0 nM, preferably, 0.4 nM) was first pre-incubated at 25° C. with 0.05 mg/ml bovine serum albumin, 10 mM DTT, 2.5% dimethyl sulfoxide, with or without a compound of Formula I, for 20 minutes. At this point a substrate solution (a solution containing the following: ATP, [^3 H]isoleucine, tRNA, HEPES, magnesium chloride, and potassium chloride) was added to give a final concentration of 0.0286 mg/ml bovine serum albumin, 5.7 mM DTT, 4 mM ATP, 5-20 μM [^3 H] isoleucine (1-15 Ci/mmol), 90 μM crude tRNA or 2 μM isoleucine specific tRNA, 1.4% dimethyl sulfoxide, 30 mM HEPES (pH 7.5), 10 mM magnesium chloride, and 50 mM potassium chloride and incubated at 25° C. Aliquots were removed at selected times (e.g. 5, 10, 20 minutes) and applied to 3MM filter paper discs (Whatman) and then dropped into 5% (wt/vol) trichloroacetic acid for >5 minutes. Filters were washed for three 10-minute periods in 5% trichloroacetic acid, rinsed in 95% ethanol and diethyl ether, and radioactivity was measured with Betafluor™ (National Diagnostics) by liquid scintillation counting.
# Inhibitor activity is reported in Table II as an IC50 value (inhibitor concentration causing 50% inhibition of enzyme activity) per a known amount of active enzyme. In the case of irreversible inhibitors (1:1 stoichiometry) these values are 50% of the active enzyme concentration. The IC50 (in nM, E. coli) values of representative compounds of the present invention are listed in the second column of Table II.
# B. subtilis ATCC 6633 = test: Whole cell antimicrobial screen, MIC; format: cell-based; conditions: Bacillus subtilis, ATCC6633
# Experimental: as §1
# [4] = system: M. catarrhalis ATCC 25240; test: Whole cell antimicrobial screen, MIC; format: cell-based; conditions: Moraxella catarrhalis, ATCC25240
# Experimental: as §1
# K. pneumonia ATCC 4352 = test: Whole cell antimicrobial screen, MIC; format: cell-based; conditions: Klebsiella pneumoniae, ATCC4352
# Experimental: as §1
# [5] = system: multidrug resistant Streptococcus pyogenes (#OTTO 209); test: Mouse protection test against multidrug resistant Streptococcus pyogenes; format: in vivo, Streptococcus pyogenes; female CD-1 mice; conditions: 10 mg/kg sc (positive control), repeated at 4 hours, 7 days
# Text: (§2) The mouse protection test is an industry standard for measuring the efficacy of a test compound in vivo [for examples of this model see J. J. Clement, et al., Antimicrobial Agents and Chemotherapy, 38 (5), 1071-1078, (1994)]. As exemplified below, this test was used to show the in vivo efficacy of the compounds of the present invention against bacteria.
# The in vivo activity of compound X against multidrug resistant bacteria was established by infecting female CD-1 mice (Charles River Lab, Massachusettes) weighing 20-24 g intraperitoneally with multidrug resistant Streptococcus pyogenes inoculum. The inoculum was prepared from multidrug resistant Streptococcus pyogenes (resistant to erythromycin, tetracycline, and chloramphenicol, #OTTO 209 obtained from Dr. Pentti Huovinen, National Public Health Institute, Finland) which was cultured in brain heart infusion broth (Baltimore Biological Laboratories, Maryland) at 37° C. for 2 hr, and then 0.1 ml of the culture was diluted with the medium to 1.0 ml for reading its OD at 600 nm (0.12). The turbidity of a 0.5 McFarland standard is equivalent to OD600 0.1, or 10^8 cfu/ml. Then, 4×10^8 cfu of the bacteria (333 μl was added to 20 ml of phosphate buffered saline (Sigma P-0261 ) containing 10 % hog gastric mucin (Sigma M-2378). All animals were injected with 0.5 ml of the inoculum, equivalent to 10^7 cfu/mouse which is the dose causing ~100% death of the animals without treatment.
# Compound X (60 mg) was dissolved in 6.0 ml of 0.05M Tris.HCl (pH 8.8) to give a solution of 10 mg/ml. This solution was serially diluted two times with 0.05M Tris.HCl by 5-fold (1.0 ml to 5.0 ml) to give 2 and 0.4 mg/ml solutions. The known antibiotic vancomycin HCl (Sigma V-2002, in normal saline, 1 mg/ml, pH 6.0-7.0) was used as a positive control. All the solutions were filtered with 0.2 μm Nalgene syringe filter. Immediately after the bacterial inoculation, group 1 animals were subcutaneously (sc) injected with 0.05M Tris.HCl (no antibiotic) and groups 2 to 4 were given compound X sc at 4, 20 and 100 mg/kg, respectively. Group 5 animals received vancomycin sc at 10 mg/kg. These injections were repeated once at 4 hours after the inoculation for the respective groups. The injection volume at each time was 10 ml per kilogram of body weight. The 50% protective dose (PD50) is calculated on the basis of the number of mice surviving 7 days after inoculation.
# [6] = system: Streptococcus pyogenes (ATCC 8668); test: Mouse protection test against wild type Streptococcus pyogenes; format: in vivo, Streptococcus pyogenes; female CD-1 mice; conditions: 10 mg/kg sc (positive control), repeated at 4 hours, 7 days
# Text: as §2
# The in vivo antibacterial activity of compound X was established by infecting female CD-1 mice (Charles River Lab, Massachusettes) weighing 20-24 g intraperitoneally with Streptococcus pyogenes inoculum. The inoculum was prepared from Streptococcus pyogenes (ATCC 8668) which was cultured in brain heart infusion broth (Baltimore Biological Laboratories,Maryland) at 37° C. for 18 hr, and then 0.1 ml of the overnight culture was diluted with the medium to 5.0 ml for reading its OD at 600 nm (0.017). The turbidity of a 0.5 McFarland standard is equivalent to OD600 0.1, or 10^8 cfu/ml. Then, 8×10^5 cfu of the bacteria (940 μl of 1:1000 overnight culture) was added to 20 ml of phosphate buffered saline (Sigma P-0261 ) containing 5% hog gastric mucin (Sigma M-2378). All animals were injected with 0.5 ml of the inoculum, equivalent to 2×10^4 cfu/mouse which is the dose causing ~100% death of the animals without treatment.
# Compound X (50 mg) was dissolved in 5.0 ml of 0.05M Tris.HCl (pH 8.8) to give a solution of 10 mg/ml. This solution was serially diluted with 0.05 M Tris.HCl by 5-fold (1.0 ml to 5.0 ml) to give 2, 0.4 and 0.08 mg/ml solutions. The known antibiotic erythromycin (Sigma E-6376, in phosphate buffered saline, 1 mg/ml, pH 7.0) was used as a positive control. All the solutions were filtered with 0.2 μm Nalgene syringe filter. Immediately after the bacterial inoculation, group 1 animals were subcutaneously (sc) injected with 0.05M Tris.HCl (no antibiotic) and groups 2 to 5 were given compound X sc at 0.8, 4, 20, and 100 mg/kg, respectively. Group 6 animals received erythromycin sc at 10 mg/kg. These injections were repeated once at 4 hours after the inoculation for the respective groups. The injection volume at each time was 10 ml per kilogram of body weight. The 50% protective dose (PD50) is calculated on the basis of the number of mice surviving 7 days after inoculation.
Structure (SMILES),MIC (C. albicans ATCC 10231) [µg/mL],MIC (E. faecium ATCC 6569) [µg/mL],MIC (S. pyogenes ATCC 8668) [µg/mL],MIC (S. aureus ATCC 14154) [µg/mL],MIC (E. faecalis ATCC 33011) [µg/mL],MIC (S. aureus ATCC 6538P) [µg/mL],MIC [1] [µg/mL],MIC [2] [µg/mL],IC50 [3] [nM],MIC (B. subtilis ATCC 6633) [µg/mL],MIC [4] [µg/mL],MIC (K. pneumonia ATCC 4352) [µg/mL],Protective % [5] [%],Number of Alive ([5]; of 5 mice),Protective % [6] [%],Number of Alive ([6]; of 5 mice)
CC[C@H](C)[C@H](N)C(=O)NS(=O)(=O)OC[C@H]1O[C@@H](CCn2nnc(-c3ccc(Sc4ccccc4)cc3)n2)[C@H](O)[C@@H]1O [IX],> 500,10,0.5,50,500,25,25,5,5,,,,,,,
CC[C@H](C)[C@H](N)C(=O)NS(=O)(=O)OC[C@H]1O[C@@H](CCn2nnc(-c3ccc(-c4ccccc4)cc3C)n2)[C@H](O)[C@@H]1O [XXI],,500,,500,> 500,100,50,50,0.5,100,< 50,100,,,,
CC[C@H](C)[C@H](N)C(=O)NS(=O)(=O)OC[C@H]1O[C@@H](CCn2nnc(-c3ccc(C(=O)OCc4ccccc4)cc3)n2)[C@H](O)[C@@H]1O [VI],> 500,100,> 5,50,> 500,25,25,5,7.5,,,,,,,
CC[C@H](C)[C@H](N)C(=O)NS(=O)(=O)OC[C@H]1O[C@@H](CCn2nnc(-c3ccc(-c4ccccc4C)cc3)n2)[C@H](O)[C@@H]1O [XIX],500,200,,50,300,50,25,5,5.3,50,50,100,,,,
CC[C@H](C)[C@H](N)C(=O)NS(=O)(=O)OC[C@H]1O[C@@H](CCn2nnc(-c3ccc(Oc4ccc([N+](=O)[O-])s4)cc3)n2)[C@H](O)[C@@H]1O [XXXI],,100,4,10,> 500,5,2,5,1.3,,,,,,,
CC[C@H](C)[C@H](N)C(=O)NS(=O)(=O)OC[C@H]1O[C@@H](CCn2nnc(-c3ccc(OCc4ccc([N+](=O)[O-])s4)cc3)n2)[C@H](O)[C@@H]1O [XVIII],100,> 500,2,25,> 500,5,5,5,0.6,,,,,,,
"CN[C@H](CC(C)C)C(=O)N[C@H]1C(=O)N[C@@H](CC(N)=O)C(=O)N[C@H]2C(=O)N[C@H]3C(=O)N[C@H](C(=O)N[C@H](C(=O)O)c4cc(O)cc(O)c4-c4cc3ccc4O)[C@H](O)c3ccc(c(Cl)c3)Oc3cc2cc(c3O[C@@H]2O[C@H](CO)[C@@H](O)[C@H](O)[C@H]2O[C@H]2C[C@](C)(N)[C@H](O)[C@H](C)O2)Oc2ccc(cc2Cl)[C@H]1O [Vancomycin, vancomycin, reference compound]",,,,,,,,,,,,,100,5,,
"CC[C@H]1OC(=O)[C@H](C)[C@@H](O[C@H]2C[C@@](C)(OC)[C@@H](O)[C@H](C)O2)[C@H](C)[C@@H](O[C@@H]2O[C@H](C)C[C@H](N(C)C)[C@H]2O)[C@](C)(O)C[C@@H](C)C(=O)[C@H](C)[C@@H](O)[C@]1(C)O [Erythromycin, erythromycin, reference compound]",,,,,,,,,,,,,,,100,5
